ChEMBL document CHEMBL1134242 (Bioorg Med Chem Lett, 2001)

Assays:
Rattus norvegicus = species on record: Rattus norvegicus; assay: Ability to inhibit high-affinity uptake of [3H]DA into striatal nerve endings (synaptosomes); assay type: functional; details: Brain
[1] = target: Sodium-dependent serotonin transporter (Rattus norvegicus, UniProt P31652); assay: Ability to inhibit binding of [3H]paroxetine to Serotonin transporter in rat caudate putamen; assay type: tissue-based
[2] = target: Sodium-dependent dopamine transporter (Rattus norvegicus, UniProt P23977); assay: Ability to inhibit binding of [3H]WIN-35428 to dopamine transporter in rat caudate putamen; assay type: tissue-based
Chain of Sodium-dependent dopamine transporter (P23977 whole entry): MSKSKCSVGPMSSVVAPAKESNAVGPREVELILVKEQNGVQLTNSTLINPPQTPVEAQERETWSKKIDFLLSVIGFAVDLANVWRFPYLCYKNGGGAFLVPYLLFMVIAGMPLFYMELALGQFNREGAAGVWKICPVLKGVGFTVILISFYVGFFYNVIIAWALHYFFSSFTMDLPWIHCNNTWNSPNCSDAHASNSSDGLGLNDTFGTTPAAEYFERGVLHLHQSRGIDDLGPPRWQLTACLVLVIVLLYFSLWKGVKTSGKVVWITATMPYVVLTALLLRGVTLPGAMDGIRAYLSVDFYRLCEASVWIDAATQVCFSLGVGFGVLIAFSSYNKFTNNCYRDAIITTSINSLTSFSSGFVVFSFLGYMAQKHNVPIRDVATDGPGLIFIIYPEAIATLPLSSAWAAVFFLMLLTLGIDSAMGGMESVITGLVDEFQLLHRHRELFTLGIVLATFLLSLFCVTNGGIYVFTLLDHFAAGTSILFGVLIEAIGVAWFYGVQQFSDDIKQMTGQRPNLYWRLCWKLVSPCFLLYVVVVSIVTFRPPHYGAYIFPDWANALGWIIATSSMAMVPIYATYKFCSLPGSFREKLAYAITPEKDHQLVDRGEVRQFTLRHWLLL

Chain of Sodium-dependent serotonin transporter (P31652 whole entry): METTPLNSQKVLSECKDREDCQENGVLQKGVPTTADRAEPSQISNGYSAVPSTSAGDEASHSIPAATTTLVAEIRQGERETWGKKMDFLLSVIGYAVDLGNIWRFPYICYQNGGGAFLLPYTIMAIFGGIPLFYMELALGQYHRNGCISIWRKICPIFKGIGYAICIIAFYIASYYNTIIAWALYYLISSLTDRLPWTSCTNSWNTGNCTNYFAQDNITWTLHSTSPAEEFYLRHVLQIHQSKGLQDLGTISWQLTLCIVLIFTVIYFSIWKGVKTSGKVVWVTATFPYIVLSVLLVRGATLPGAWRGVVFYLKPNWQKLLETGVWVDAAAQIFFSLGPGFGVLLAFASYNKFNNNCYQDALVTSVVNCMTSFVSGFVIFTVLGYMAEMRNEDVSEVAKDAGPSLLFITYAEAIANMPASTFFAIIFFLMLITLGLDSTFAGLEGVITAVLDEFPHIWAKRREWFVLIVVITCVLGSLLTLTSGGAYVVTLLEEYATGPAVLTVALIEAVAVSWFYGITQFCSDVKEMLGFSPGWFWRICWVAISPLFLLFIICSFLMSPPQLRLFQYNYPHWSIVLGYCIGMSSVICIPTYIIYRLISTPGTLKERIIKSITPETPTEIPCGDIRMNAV

| SMILES | IC50 (Rattus norvegicus) | IC50 [1] | IC50 [2] |
| --- | --- | --- | --- |
| CO[C@H]1CC2C[C@H](OC(c3ccccc3)c3ccc(Cl)cc3)CC1N2C (stereo partly drawn) | 519 nM | > 100 µM | 750 nM |
| CO[C@@H]1CC2C[C@@H](OC(c3ccccc3)c3ccc(Cl)cc3)CC1N2C (stereo partly drawn) | 179 nM | > 100 µM | 32 nM |
| c1ccc(C(O[C@H]2C[C@H]3CC[C@@H](C2)O3)c2ccccc2)cc1 |  |  | > 10000 nM |
| Fc1ccc(C(O[C@H]2C[C@H]3CC[C@@H](C2)O3)c2ccc(F)cc2)cc1 |  |  | 2000 nM |
| CO[C@H]1CC2C[C@H](OC(c3ccc(F)cc3)c3ccc(F)cc3)CC1N2C (stereo partly drawn) | 165 nM | > 100 µM | 95 nM |
| CO[C@@H]1CC2C[C@@H](OC(c3ccc(F)cc3)c3ccc(F)cc3)CC1N2C (stereo partly drawn) | 104 nM | > 100 µM | 25 nM |
| CO[C@H]1CC2C[C@H](OC(c3ccccc3)c3ccccc3)CC1N2C (mixture of isomers) | 2280 nM | > 100 µM | 650 nM |
| COC(=O)[C@@H]1C2CC[C@@H](C[C@@H]1OC(=O)c1ccccc1)N2C (single isomer, unassigned) [COCAINE] | 208 nM |  |  |
